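Where inhibition never reached the appropriate level, the endpoint shown equals the highest concentration tested. Otherwise, values were interpolated linearly from a five-concentration, 48-hour dose response in 96-well plates. GI50 marks 50% less growth. TGI: total growth inhibition.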 Where a SMILES comes first, the peptide text is derived from it. The star is where a group is joined. Palmitoyl = CCCCCCCCCCCCCCCC(=O)*
How the values were obtained:
Assay in all cases: NCI tumour cell line growth inhibition, 48 h
MOLT-4 leukemia = system: MOLT-4 leukemia
SR leukemia = system: SR leukemia
K-562 leukemia = system: K-562 leukemia
SK-OV-3 ovarian = system: SK-OV-3 ovarian
NCI-H23 lung = system: NCI-H23 lung
HS 578T breast = system: HS 578T breast
SNB-75 CNS = system: SNB-75 CNS
T-47D breast = system: T-47D breast
A549 NSCLC = system: A549 NSCLC
SW-620 colon = system: SW-620 colon

SMILES | TGI (MOLT-4 leukemia) | TGI (SR leukemia) | TGI (K-562 leukemia) | TGI (SK-OV-3 ovarian) | TGI (NCI-H23 lung) | TGI (HS 578T breast) | TGI (SNB-75 CNS) | TGI (T-47D breast) | TGI (A549 NSCLC) | TGI (SW-620 colon) | GI50 (MOLT-4 leukemia) | GI50 (SR leukemia) | GI50 (K-562 leukemia) | GI50 (SK-OV-3 ovarian) | GI50 (NCI-H23 lung) | GI50 (HS 578T breast) | GI50 (SNB-75 CNS) | GI50 (T-47D breast) | GI50 (A549 NSCLC) | GI50 (SW-620 colon)
Cn1c2ccccc2c2c(=S)c3ccccc3ccc21 | > 100 µM | > 100 µM | > 100 µM | > 100 µM | > 100 µM | > 100 µM | > 100 µM | > 100 µM | > 100 µM | > 100 µM |  |  |  |  |  |  |  |  |  | 
COc1ccc(C(=O)NCCN(C)C)c2nc3ccccc3cc12 | 22.6 µM | 1.5 µM | 12.5 µM | 8.69 µM | 2.2 µM | 4.91 µM | 13.3 µM | 12.6 µM | 2.4 µM | 5.06 µM |  |  |  |  |  |  |  |  |  | 
O=C(CC(=O)Nc1ccccc1)NNC(Sc1ccccc1)c1cc(N=Nc2ccc(Br)cc2)ccc1O (centres undefined) | > 10 µM | > 10 µM | 6.27 µM | > 10 µM | > 10 µM | > 10 µM | > 10 µM | > 10 µM | > 10 µM | > 10 µM |  |  |  |  |  |  |  |  |  | 
CC(C)(C)OC(=O)NC(CSSCC(NC(=O)OC(C)(C)C)C(=O)O)C(=O)O (centres undefined) | > 100 µM | > 100 µM | > 100 µM | > 100 µM | > 100 µM | > 100 µM | > 100 µM | > 100 µM | > 100 µM | > 100 µM |  |  |  |  |  |  |  |  |  | 
c1ccc(C2=NOC(c3ccccc3)N2C23CC4CC(CC(C4)C2)C3)cc1 (centres undefined) | > 10 µM | > 10 µM | > 10 µM | > 10 µM | > 10 µM | > 10 µM | > 10 µM | > 10 µM | > 10 µM | > 10 µM |  |  |  |  |  |  |  |  |  | 
CC(C)Oc1cccc(N2C(=NCc3c[nH]c4ccccc34)Nc3ccncc3S2(=O)=O)c1 | 96.7 µM | > 100 µM | > 100 µM | > 100 µM | > 100 µM | 81.6 µM | 67.7 µM | 85.2 µM | > 100 µM | > 100 µM |  |  |  |  |  |  |  |  |  | 
CCCCCCCCCCCCCCCC(=O)N1CCCC1C(=O)NCC(=O)NC(Cc1ccccc1)C(=O)N1CCCC1C(=O)NC(CO)C(=O)NC(Cc1ccc(O)cc1)C(=O)NC(CCCCN)C(=O)NC(CC(C)C)C(=O)NC(CCCN=C(N)N)C(=O)N1CCCC1C(=O)NCC(N)=O (centres undefined) (Palmitoyl-PGFPSYKLRPG-NH2; configuration not given here) | 37.7 µM | 44.9 µM | 38.5 µM | 48.1 µM | 36.6 µM | 74.5 µM | 49.3 µM | 48.5 µM | 35.4 µM | 73.9 µM | 18.6 µM | 16.5 µM | 14.3 µM | 23.2 µM | 18.7 µM | 22.2 µM | 21.7 µM | 17.9 µM | 17.5 µM | 25.5 µM
O=[N+]([O-])c1cc2oc(CSc3ccccc3)nc2cc1Cl | > 100 µM | > 100 µM | > 100 µM | 78.7 µM | 88.6 µM | > 100 µM | 67.5 µM | > 100 µM | > 100 µM | > 100 µM |  |  |  |  |  |  |  |  |  | 
COc1cc(O)c2c(=O)c(OC)c(-c3ccc(OC)c(O)c3)oc2c1 | > 100 µM | > 100 µM | > 100 µM | > 100 µM | > 100 µM | > 100 µM | > 100 µM | > 100 µM | > 100 µM | > 100 µM |  |  |  |  |  |  |  |  |  | 
CN1CCN(Cc2cc3c(nn2)-c2ccccc2C3=O)CC1 | > 100 µM | > 100 µM | > 100 µM | > 100 µM | > 100 µM | > 100 µM | > 100 µM | > 100 µM | > 100 µM | > 100 µM |  |  |  |  |  |  |  |  |  | 
Cc1ccc(/C=C2/N=C(N/N=C\C(O)C(O)C(O)C(O)CO)NC2=O)cc1 (centres undefined) | > 100 µM | > 100 µM | > 100 µM | > 100 µM | > 100 µM | > 100 µM | > 100 µM | > 100 µM | > 100 µM | > 100 µM | 70.1 µM |  | > 100 µM |  |  |  |  |  |  | 
Clc1ccc(C=NC23CC4CC(CC(C4)C2)C3)c(Cl)c1 | > 10 µM | > 10 µM | > 10 µM | > 10 µM | > 10 µM | > 10 µM | > 10 µM | > 10 µM | > 10 µM | > 10 µM |  |  |  |  |  |  |  |  |  | 
CCOC(=O)CC/C(=N/Nc1ccc(Cl)cc1[N+](=O)[O-])C(=O)OCC | > 100 µM | > 100 µM | > 100 µM | > 100 µM | > 100 µM | > 100 µM | > 100 µM | > 100 µM | > 100 µM | > 100 µM |  |  |  |  |  |  |  |  |  | 
C=C1C(=O)[C@@]23CC[C@@H]4[C@@]5(C)CCC[C@@]4(OC5=O)[C@@]2(C)CC[C@@H]1C3 | > 26.1 µM | > 100 µM |  | 23.3 µM | 4.49 µM | > 54 µM | 13.1 µM | 57.9 µM | 36.3 µM |  |  |  |  |  |  |  |  |  |  | 
Cc1ccnc(NC(=S)Nc2ccc([N+](=O)[O-])cc2)c1 | > 100 µM | > 100 µM | > 100 µM | > 100 µM | > 100 µM | 94.8 µM | > 100 µM | > 100 µM |  | > 100 µM |  |  |  |  |  |  |  |  |  | 
CCOC(=O)C(NC(=O)CC)(N1CCN(c2cc3c(cc2F)c(=O)c(C(=O)O)cn3C2CC2)CC1)C(F)(F)F (centres undefined) | > 100 µM | > 100 µM | > 100 µM | > 100 µM | > 100 µM | > 100 µM | > 100 µM | > 100 µM | > 100 µM | > 100 µM |  |  |  |  |  |  |  |  |  | 

SMILES | TGI (MOLT-4 leukemia) | TGI (SR leukemia) | TGI (K-562 leukemia) | TGI (SK-OV-3 ovarian) | TGI (NCI-H23 lung) | TGI (HS 578T breast) | TGI (SNB-75 CNS) | TGI (T-47D breast) | TGI (A549 NSCLC) | TGI (SW-620 colon) | GI50 (MOLT-4 leukemia) | GI50 (SR leukemia) | GI50 (K-562 leukemia) | GI50 (SK-OV-3 ovarian) | GI50 (NCI-H23 lung) | GI50 (HS 578T breast) | GI50 (SNB-75 CNS) | GI50 (T-47D breast) | GI50 (A549 NSCLC) | GI50 (SW-620 colon)
CC12c3c4ccc(C=O)c3Oc3ccc(C=O)c(c31)Oc1ccc(C=O)c(c12)O4 | > 25 µM | > 25 µM | > 25 µM | > 25 µM | > 25 µM | > 25 µM | > 25 µM | > 25 µM | > 25 µM | > 25 µM |  |  |  |  |  |  |  |  |  | 
O=C(c1ccccc1)c1ccc2c(c1)NC(=O)c1ccccc1SSc1ccccc1C(=O)N2 | > 100 µM | > 100 µM | > 100 µM | > 100 µM | > 100 µM | > 100 µM |  | > 100 µM | > 100 µM | > 100 µM |  |  |  |  |  |  |  |  |  | 
O=c1onc2n1-c1cc(Cl)ccc1C(=S)N1CSCC21 (centres undefined) | > 100 µM | > 100 µM | 63.8 µM | > 100 µM |  | > 100 µM | > 100 µM | > 100 µM | > 100 µM | > 100 µM |  |  |  |  |  |  |  |  |  | 
OCCCc1ccc2c(c1)[C@H](CO)[C@@H](c1ccc(O)cc1)O2 | > 100 µM | > 100 µM | > 100 µM | > 100 µM | > 100 µM | 38.6 µM | > 100 µM | > 100 µM | > 100 µM | > 100 µM |  |  |  |  |  |  |  |  |  | 
Clc1sc(Cl)c2c1[C@@H](Cl)C[C@@H]2Br | 43.9 µM | 48.3 µM | > 100 µM | > 100 µM | > 100 µM | > 100 µM | > 100 µM | > 100 µM | > 100 µM | > 100 µM |  |  |  |  |  |  |  |  |  | 
C=CCn1c(=O)ccn(/C(=C/C(=O)OCC)C(=O)OCC)c1=O | 10.3 µM | 23.2 µM | 12.5 µM | 74.3 µM | 36.4 µM | 73.4 µM | 30.4 µM | 19 µM | 32.3 µM | 6.57 µM |  |  |  |  |  |  |  |  |  | 
COc1cc(Nc2ccc3c(c2)CCC3)nc(OC)n1 |  | 77.8 µM |  | > 100 µM | > 100 µM | 42.6 µM | 53.5 µM | > 100 µM | > 100 µM | > 100 µM |  |  |  |  |  |  |  |  |  | 
CCOC(=O)/C(C(C)=O)=C(\OC(C)=O)c1ccncc1C(=O)O | > 100 µM | > 100 µM | > 100 µM | > 100 µM | > 100 µM | > 100 µM | > 100 µM | > 100 µM | > 100 µM | > 100 µM |  |  |  |  |  |  |  |  |  | 
O=c1c2c(no[n+]2[O-])c2ccccc2n1-c1ccccc1 | 26.6 µM | > 27.3 µM | > 46.4 µM | 21.7 µM | 5.53 µM | 39.1 µM | 19.2 µM | 23.6 µM | 35.1 µM | 7.54 µM |  |  |  |  |  |  |  |  |  | 
CCN(CC)c1ccc(/C=C/c2ccnc3ccccc23)cc1 |  | > 100 µM | > 100 µM | > 100 µM | > 100 µM | > 100 µM | > 100 µM | > 100 µM | > 100 µM | > 100 µM |  |  |  |  |  |  |  |  |  | 
O=C(O)C(O)C(O)C(O)C(O)CO (centres undefined) | > 100 µM | > 100 µM | > 100 µM | > 100 µM | > 100 µM | > 100 µM | > 100 µM | > 100 µM | > 100 µM | > 100 µM |  |  |  |  |  |  |  |  |  | 
O=C(CNc1ccc(Cl)cc1Cl)Nn1c(-c2ccccc2)nc2ccccc2c1=O | 43.3 µM | > 100 µM | 36.5 µM | > 100 µM | 29.8 µM | 71.8 µM | 30.5 µM | 38.5 µM | > 100 µM | 34.4 µM |  |  |  |  |  |  |  |  |  | 
O=C(CCSC1=NCCCN1)c1ccc(F)cc1 | 7.27 µM | 13.3 µM | 10.1 µM | 43.5 µM | 43.4 µM | 62.6 µM | 42.6 µM | > 70.6 µM | 40.3 µM | 15.5 µM |  |  |  |  |  |  |  |  |  | 
CCOc1c(OC)cc(-c2nc3n(n2)C(=O)C(CC)S3)cc1OC (centres undefined) | > 10 µM | > 10 µM | > 10 µM | > 10 µM | > 10 µM | > 10 µM | > 10 µM | > 10 µM | > 10 µM | > 10 µM |  |  |  |  |  |  |  |  |  | 
CC(C)N1CCN(c2ccc(OCC3COC(Cn4cncn4)(c4ccc(Cl)cc4Cl)O3)cc2)CC1 (centres undefined) | 28.8 µM | 12.1 µM | 19.8 µM | 28.9 µM | 30.9 µM | 31 µM | 27.5 µM | 47.8 µM | > 52 µM | 37.4 µM |  |  |  |  |  |  |  |  |  | 

From PubChem BioAssay (NCI)
